In patent publication US10023543B2 (CELGENE QUANTICEL RESEARCH, INC., priority 2014, dated 2018):

Tested on: THP-1 (AML) cells
Assay: LSD1 CD11b cellular assay (flow cytometry)
Type: cell-based
Details: Homo sapiens, THP-1, 96 h; CD11b expressing cells, 4 days; read-out: THP-1 IC50

`COc1ccc(-c2c(-c3ccc(C#N)c(F)c3)nc(NC[C@H]3CCNC3)n(C)c2=O)cc1` [Example 51, 2-fluoro-4-{5-(4-methoxy-phenyl)-1-methyl-6-oxo-2-[(3S)-(pyrrolidin-3-ylmethyl)-amino]-1,6-dihydro-pyrimidin-4-yl}-benzonitrile] and `COc1ccc(-c2c(-c3ccc(C#N)c(F)c3)nc(NC[C@@H]3CCNC3)n(C)c2=O)cc1` [Example 52, 2-luoro-4-{5-(4-methoxy-phenyl)-1-methyl-6-oxo-2-[(3R)-(pyrrolidin-3-ylmethyl)-amino]-1,6-dihydro-pyrimidin-4-yl}-benzonitrile] fall in the same range of IC50: 100 to 1000 nM for the first, 100 to 1000 nM for the second.

First: COc1ccc(-c2c(-c3ccc(C#N)c(F)c3)nc(NC3CCNCC3)n(C)c2=O)cc1 [Example 53, 2-fluoro-4-[5-(4-methoxy-phenyl)-1-methyl-6-oxo-2-(piperidin-4-ylamino)-1,6-dihydro-pyrimidin-4-yl]-benzonitrile]
Second: COc1ccc(-c2c(-c3ccc(C#N)c(F)c3)nc(N(C)C[C@H]3CCNC3)n(C)c2=O)cc1 [Example 54, 2-fluoro-4-[5-(4-methoxy-phenyl)-1-methyl-2-(methyl-(3S)-pyrrolidin-3-ylmethyl-amino)-6-oxo-1,6-dihydro-pyrimidin-4-yl]-benzonitrile]
The IC50 of the first is higher: 100 to 1000 nM for the first, under 100 nM for the second. The second is the more potent here.

`CN(C)c1ccc(-c2c(-c3ccc(C#N)c(F)c3)nc(N3CCC(N)CC3)n(C)c2=O)cn1` [Example 57, 4-[2-(4-amino-piperidin-1-yl)-5-(6-dimethylamino-pyridin-3-yl)-1-methyl-6-oxo-1,6-dihydro-pyrimidin-4-yl]-2-fluoro-benzonitrile] and `CNC1CCN(c2nc(-c3ccc(C#N)c(F)c3)c(-c3ccc(N(C)C)nc3)c(=O)n2C)CC1` [Example 83, 4-[5-(6-dimethylamino-pyridin-3-yl)-1-methyl-2-(4-methylamino-piperidin-1-yl)-6-oxo-1,6-dihydro-pyrimidin-4-yl]-2-fluoro-benzonitrile] cannot be ordered by IC50: under 100 nM for the first, under 100 nM for the second.

`CNC1CCN(c2nc(-c3ccc(C#N)c(F)c3)c(-c3ccc(OC)nc3)c(=O)n2C)CC1` [Example 58, 2-fluoro-4-[5-(6-methoxy-pyridin-3-yl)-1-methyl-2-(4-methylamino-piperidin-1-yl)-6-oxo-1,6-dihydro-pyrimidin-4-yl]-benzonitrile] and `CNC1CCN(c2nc(-c3ccc(C#N)c(F)c3)c(-c3ccc4c(cnn4C)c3)c(=O)n2C)CC1` [Example 87, 2-fluoro-4-[1-methyl-2-[4-(methylamino)piperidin-1-yl]-5-(1-methylindazol-5-yl)-6-oxopyrimidin-4-yl]benzonitrile] cannot be ordered by IC50: under 100 nM for the first, under 100 nM for the second.

`CN(C)c1ccc(-c2c(-c3ccc(C#N)c(F)c3)nc(N3CCC(N)CC3)n(C)c2=O)cc1` [Example 59, 4-[2-(4-amino-piperidin-1-yl)-5-(4-dimethylamino-phenyl)-1-methyl-6-oxo-1,6-dihydro-pyrimidin-4-yl]-2-fluoro-benzonitrile] and `CNc1ccc(-c2c(-c3ccc(C#N)c(F)c3)nc(N3CCC(N)CC3)n(C)c2=O)cc1` [Example 90, 4-[2-(4-aminopiperidin-1-yl)-1-methyl-5-[4-(methylamino)phenyl]-6-oxopyrimidin-4-yl]-2-fluorobenzonitrile] cannot be ordered by IC50: under 100 nM for the first, under 100 nM for the second.

`Cn1c(N2CCC(N)CC2)nc(-c2ccc(C#N)c(F)c2)c(-c2ccc(N3CCCC3)nc2)c1=O` [Example 60, 4-[2-(4-amino-piperidin-1-yl)-1-methyl-6-oxo-5-(6-pyrrolidin-1-yl-pyridin-3-yl)-1,6-dihydro-pyrimidin-4-yl]-2-fluoro-benzonitrile] and `Cn1c(N2CCC(N)CC2)nc(-c2ccc(C#N)c(F)c2)c(-c2ccc(N3CCOCC3)nc2)c1=O` [Example 68, 4-[2-(4-amino-piperidin-1-yl)-1-methyl-5-(6-morpholin-4-yl-pyridin-3-yl)-6-oxo-1,6-dihydro-pyrimidin-4-yl]-2-fluoro-benzonitrile] cannot be ordered by IC50: under 100 nM for the first, under 100 nM for the second.

`COc1ccc(-c2c(-c3ccc(C#N)c(F)c3)nc(N3CCCNCC3)n(C)c2=O)cn1` [Example 61, 4-[2-[1,4]diazepan-1-yl-5-(6-methoxy-pyridin-3-yl)-1-methyl-6-oxo-1,6-dihydro-pyrimidin-4-yl]-2-fluoro-benzonitrile] and `CN(C)c1ccc(-c2c(-c3ccc(C#N)c(F)c3)nc(N3CCCNCC3)n(C)c2=O)cn1` [Example 63, 4-[2-[1,4]diazepan-1-yl-5-(6-dimethylamino-pyridin-3-yl)-1-methyl-6-oxo-1,6-dihydro-pyrimidin-4-yl]-2-fluoro-benzonitrile] cannot be ordered by IC50: under 100 nM for the first, under 100 nM for the second.

First: COc1ccc(-c2c(-c3ccc(C#N)cc3)nc(N3CCCNCC3)n(C)c2=O)cn1 [Example 62]
Second: CN(C)c1ccc(-c2c(-c3ccc(C#N)cc3)nc(N3CCCNCC3)n(C)c2=O)cn1 [Example 67, 4-[2-[1,4]diazepan-1-yl-5-(6-dimethylamino-pyridin-3-yl)-1-methyl-6-oxo-1,6-dihydro-pyrimidin-4-yl]-benzonitrile]
The IC50 of the first is higher: 100 to 1000 nM for the first, under 100 nM for the second. The second is the more potent here.

`COc1ccc(-c2c(-c3ccc(C#N)c(F)c3)nc(N3CC(N)C3)n(C)c2=O)cc1` [Example 64, 4-[2-(3-amino-azetidin-1-yl)-5-(4-methoxy-phenyl)-1-methyl-6-oxo-1,6-dihydro-pyrimidin-4-yl]-2-fluoro-benzonitrile] and `COc1ccc(-c2c(-c3ccc(C#N)c(F)c3)nc(N3CC(CN)C3)n(C)c2=O)cc1` [Example 69, 4-[2-(3-aminomethyl-azetidin-1-yl)-5-(4-methoxy-phenyl)-1-methyl-6-oxo-1,6-dihydro-pyrimidin-4-yl]-2-fluoro-benzonitrile] fall in the same range of IC50: 100 to 1000 nM for the first, 100 to 1000 nM for the second.

`CNCC1CN(c2nc(-c3ccc(C#N)c(F)c3)c(-c3ccc(OC)cc3)c(=O)n2C)C1` [Example 70, 2-fluoro-4-[5-(4-methoxy-phenyl)-1-methyl-2-(3-methylaminomethyl-azetidin-1-yl)-6-oxo-1,6-dihydro-pyrimidin-4-yl]-benzonitrile] and `COc1ccc(-c2c(-c3ccc(C#N)c(F)c3)nc(N3CC[C@@H](N)[C@@H](F)C3)n(C)c2=O)cc1` [Example 78, 4-[2-((4R,3S)-4-amino-3-fluoro-piperidin-1-yl)-5-(4-methoxy-phenyl)-1-methyl-6-oxo-1,6-dihydro-pyrimidin-4-yl]-2-fluoro-benzonitrile] cannot be ordered by IC50: under 100 nM for the first, under 100 nM for the second.

`CN(C)C1CCN(c2nc(-c3ccc(C#N)c(F)c3)c(-c3ccc4c(cnn4C)c3)c(=O)n2C)CC1` [Example 72, 4-[2-(4-dimethylamino-piperidin-1-yl)-1-methyl-5-(1-methyl-1H-indazol-5-yl)-6-oxo-1,6-dihydro-pyrimidin-4-yl]-2-fluoro-benzonitrile] and `CN(C)C1CCN(c2nc(-c3ccc(C#N)c(F)c3)c(-c3ccc4cn(C)nc4c3)c(=O)n2C)CC1` [Example 80, 4-[2-(4-dimethylamino-piperidin-1-yl)-1-methyl-5-(2-methyl-2H-indazol-6-yl)-6-oxo-1,6-dihydro-pyrimidin-4-yl]-2-fluoro-benzonitrile] cannot be ordered by IC50: under 100 nM for the first, under 100 nM for the second.

`Cn1c(N2CCC(N)CC2)nc(-c2ccc(C#N)c(F)c2)c(-c2ccc3[nH]ccc3c2)c1=O` [Example 73, 4-[2-(4-amino-piperidin-1-yl)-5-(1H-indol-5-yl)-1-methyl-6-oxo-1,6-dihydro-pyrimidin-4-yl]-2-fluoro-benzonitrile] and `Cn1c(N2CCC(N)CC2)nc(-c2ccc(C#N)c(F)c2)c(-c2ccc3cc[nH]c3c2)c1=O` [Example 75, 4-[2-(4-amino-piperidin-1-yl)-5-(1H-indol-6-yl)-1-methyl-6-oxo-1,6-dihydro-pyrimidin-4-yl]-2-fluoro-benzonitrile] cannot be ordered by IC50: under 100 nM for the first, under 100 nM for the second.

`Cn1c(N2CCC(N)CC2)nc(-c2ccc(C#N)c(F)c2)c(-c2ccc3c(ccn3C)c2)c1=O` [Example 74, 4-[2-(4-amino-piperidin-1-yl)-1-methyl-5-(1-methyl-1H-indol-5-yl)-6-oxo-1,6-dihydro-pyrimidin-4-yl]-2-fluoro-benzonitrile] and `Cn1c(N2CCC(N)CC2)nc(-c2ccc(C#N)c(F)c2)c(-c2ccc3ccn(C)c3c2)c1=O` [Example 76, 4-[2-(4-amino-piperidin-1-yl)-1-methyl-5-(1-methyl-1H-indol-6-yl)-6-oxo-1,6-dihydro-pyrimidin-4-yl]-2-fluoro-benzonitrile] cannot be ordered by IC50: under 100 nM for the first, under 100 nM for the second.

`Cn1c(N2CCC(N)CC2)nc(-c2ccc(C#N)c(F)c2)c(-c2ccc3cn[nH]c3c2)c1=O` [Example 77, 4-[2-(4-amino-piperidin-1-yl)-5-(1H-indazol-6-yl)-1-methyl-6-oxo-1,6-dihydro-pyrimidin-4-yl]-2-fluoro-benzonitrile] and `CN(C)C1CCN(c2nc(-c3ccc(C#N)c(F)c3)c(-c3ccc4cn[nH]c4c3)c(=O)n2C)CC1` [Example 84, 4-[2-(4-dimethylamino-piperidin-1-yl)-5-(2H-indazol-6-yl)-1-methyl-6-oxo-1,6-dihydro-pyrimidin-4-yl]-2-fluoro-benzonitrile] cannot be ordered by IC50: under 100 nM for the first, under 100 nM for the second.

`COc1ccc(-c2c(-c3ccc(C#N)c(F)c3)nc(N3CC[C@H](N)[C@H](F)C3)n(C)c2=O)cc1` [Example 79, 4-[2-((4S,3R)-4-amino-3-fluoro-piperidin-1-yl)-5-(4-methoxy-phenyl)-1-methyl-6-oxo-1,6-dihydro-pyrimidin-4-yl]-2-fluoro-benzonitrile] and `Cn1c(N2CCC(N)CC2)nc(-c2ccc(C#N)c(F)c2)c(-c2ccc(N)cc2)c1=O` [Example 89, 4-[5-(4-aminophenyl)-2-(4-aminopiperidin-1-yl)-1-methyl-6-oxopyrimidin-4-yl]-2-fluorobenzonitrile] cannot be ordered by IC50: under 100 nM for the first, under 100 nM for the second.

`CN(C)c1ncc(-c2c(-c3ccc(C#N)c(F)c3)nc(N3CCC(N(C)C)CC3)n(C)c2=O)cn1` [Example 81, 4-[2′-dimethylamino-2-(4-dimethylamino-piperidin-1-yl)-1-methyl-6-oxo-1,6-dihydro-[5,5′]bipyrimidinyl-4-yl]-2-fluoro-benzonitrile] and `Cc1ccc(-c2c(-c3ccc(C#N)c(F)c3)nc(N3CCC(N(C)C)CC3)n(C)c2=O)cn1` [Example 82, 4-[2-(4-dimethylamino-piperidin-1-yl)-1-methyl-5-(6-methyl-pyridin-3-yl)-6-oxo-1,6-dihydro-pyrimidin-4-yl]-2-fluoro-benzonitrile] fall in the same range of IC50: 100 to 1000 nM for the first, 100 to 1000 nM for the second.
